Compound: O=C(NC1CCNCC1)c1n[nH]cc1NC(=O)c1c(Cl)cccc1Cl [AT-7519] + Cc1cc(Nc2cc(N3CCN(C)CC3)nc(Sc3ccc(NC(=O)C4CC4)cc3)n2)n[nH]1 [Tozasertib] (partner 0.1 µM)
Test: relative viability (nuclei count vs DMSO), 5 days (fraction); higher = more cells survive
Details: first compound 0.03162 µM
Summary of the method: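 Nuclei were stained with Hoechst during a one-step fixation (final 0.05% Triton X-100, 1% formaldehyde, 1 ug/ml Hoechst) carried out 5 days after dosing, then counted on 4× images. The cells, lung cancer lines in 1536-well plates, had been dosed by pin tool the day after seeding with one drug alone or a fixed anchor-drug dose plus five library-drug doses (not always all listed) in √10 steps. Relative viability is the nuclei count in treated wells divided by that in vehicle wells, and each value is the median of duplicate plates.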

**Q.** How did the relative viability turn out when COR-L 105 was run?
**A.** 0.382

**Q.** For LOU-NH91, which relative viability is on record?
**A.** 0.679

**Q.** For ChaGo-K-1, which relative viability is on record?
**A.** 0.23

**Q.** With NCI-H2170 as the cell line, how does the relative viability read?
**A.** 0.751

**Q.** How did the relative viability turn out when NCI-H2405 was run?
**A.** 0.797

**Q.** With HOP-62 as the cell line, how does the relative viability read?
**A.** 0.279

**Q.** Which relative viability does the source give for HCC-44 here?
**A.** 0.809

**Q.** With NCI-H522 as the cell line, how does the relative viability read?
**A.** 0.514

**Q.** For LU99A, which relative viability is on record?
**A.** 0.276

**Q.** How did the relative viability turn out when BEN was run?
**A.** 0.459

**Q.** Which relative viability does the source give for HARA here?
**A.** 0.0981

**Q.** For SW 900, which relative viability is on record?
**A.** 0.484

**Q.** How did the relative viability turn out when HCC-78 was run?
**A.** 0.451

Same assay, conditions: first compound 0.3162 µM

**Q.** Which relative viability does the source give for NCI-H2342 here?
**A.** 0.493

**Q.** NCI-H1623 was tested. Which relative viability did it give?
**A.** 0.518

**Q.** Which relative viability does the source give for NCI-H727 here?
**A.** 0.519

**Q.** How did the relative viability turn out when NCI-H1650 was run?
**A.** 0.392

**Q.** NCI-H1993 was tested. Which relative viability did it give?
**A.** 0.544

**Q.** How did the relative viability turn out when SW 1573 was run?
**A.** 0.143

**Q.** Which relative viability does the source give for NCI-H838 here?
**A.** 0.291

**Q.** With LCLC-103H as the cell line, how does the relative viability read?
**A.** 0.511

**Q.** For NCI-H520, which relative viability is on record?
**A.** 0.399

**Q.** With NCI-H2126 as the cell line, how does the relative viability read?
**A.** 0.504

**Q.** How did the relative viability turn out when EMC-BAC-2 was run?
**A.** 0.302

**Q.** How did the relative viability turn out when NCI-H2085 was run?
**A.** 0.787

**Q.** For HCC-366, which relative viability is on record?
**A.** 0.119

**Q.** How did the relative viability turn out when NCI-H1666 was run?
**A.** 0.501

**Q.** How did the relative viability turn out when NCI-H596 was run?
**A.** 1

**Q.** How did the relative viability turn out when NCI-H2087 was run?
**A.** 0.282

**Q.** For NCI-H1648, which relative viability is on record?
**A.** 0.371

**Q.** SK-MES-1 was tested. Which relative viability did it give?
**A.** 0.814

**Q.** With H3255 as the cell line, how does the relative viability read?
**A.** 0.622

**Q.** COR-L23 was tested. Which relative viability did it give?
**A.** 0.148

**Q.** Which relative viability does the source give for COR-L 105 here?
**A.** 0.378

**Q.** For LOU-NH91, which relative viability is on record?
**A.** 0.676

**Q.** With ChaGo-K-1 as the cell line, how does the relative viability read?
**A.** 0.215

**Q.** How did the relative viability turn out when NCI-H2170 was run?
**A.** 0.762

**Q.** With NCI-H2405 as the cell line, how does the relative viability read?
**A.** 0.725

**Q.** How did the relative viability turn out when HOP-62 was run?
**A.** 0.353

**Q.** Which relative viability does the source give for HCC-44 here?
**A.** 0.303

**Q.** For NCI-H522, which relative viability is on record?
**A.** 0.57

**Q.** How did the relative viability turn out when LU99A was run?
**A.** 0.297

**Q.** How did the relative viability turn out when BEN was run?
**A.** 0.501

**Q.** HARA was tested. Which relative viability did it give?
**A.** 0.147

**Q.** Which relative viability does the source give for SW 900 here?
**A.** 0.639

**Q.** With HCC-78 as the cell line, how does the relative viability read?
**A.** 0.49

Same assay, conditions: first compound 1 µM

**Q.** With NCI-H2342 as the cell line, how does the relative viability read?
**A.** 0.557

**Q.** How did the relative viability turn out when NCI-H1623 was run?
**A.** 0.393

**Q.** With NCI-H727 as the cell line, how does the relative viability read?
**A.** 0.367

**Q.** With NCI-H1650 as the cell line, how does the relative viability read?
**A.** 0.148

**Q.** NCI-H1993 was tested. Which relative viability did it give?
**A.** 0.506

**Q.** SW 1573 was tested. Which relative viability did it give?
**A.** 0.125

**Q.** NCI-H838 was tested. Which relative viability did it give?
**A.** 0.187

**Q.** How did the relative viability turn out when LCLC-103H was run?
**A.** 0.432

**Q.** For NCI-H520, which relative viability is on record?
**A.** 0.385

**Q.** NCI-H2126 was tested. Which relative viability did it give?
**A.** 0.32

**Q.** With EMC-BAC-2 as the cell line, how does the relative viability read?
**A.** 0.308

**Q.** NCI-H2085 was tested. Which relative viability did it give?
**A.** 0.819

**Q.** With HCC-366 as the cell line, how does the relative viability read?
**A.** 0.0621

**Q.** NCI-H1666 was tested. Which relative viability did it give?
**A.** 0.413

**Q.** Which relative viability does the source give for NCI-H596 here?
**A.** 0.849

**Q.** For LK-2, which relative viability is on record?
**A.** 0.206

**Q.** For NCI-H2087, which relative viability is on record?
**A.** 0.0867

**Q.** For NCI-H1648, which relative viability is on record?
**A.** 0.405

**Q.** Which relative viability does the source give for SK-MES-1 here?
**A.** 0.243

**Q.** With H3255 as the cell line, how does the relative viability read?
**A.** 0.582

**Q.** How did the relative viability turn out when COR-L23 was run?
**A.** 0.144

**Q.** Which relative viability does the source give for COR-L 105 here?
**A.** 0.413

**Q.** Which relative viability does the source give for LOU-NH91 here?
**A.** 0.57

**Q.** Which relative viability does the source give for ChaGo-K-1 here?
**A.** 0.204

**Q.** For NCI-H2170, which relative viability is on record?
**A.** 0.651

**Q.** How did the relative viability turn out when NCI-H2405 was run?
**A.** 0.463

**Q.** With HOP-62 as the cell line, how does the relative viability read?
**A.** 0.399

**Q.** How did the relative viability turn out when HCC-44 was run?
**A.** 0.231

**Q.** Which relative viability does the source give for NCI-H522 here?
**A.** 0.486

**Q.** LU99A was tested. Which relative viability did it give?
**A.** 0.218

**Q.** Which relative viability does the source give for BEN here?
**A.** 0.597

**Q.** With HARA as the cell line, how does the relative viability read?
**A.** 0.155

**Q.** SW 900 was tested. Which relative viability did it give?
**A.** 0.375

**Q.** HCC-78 was tested. Which relative viability did it give?
**A.** 0.326
